Read-outs that look alike come from different tables or passages of the source.
Assays:
[1] = molecular target: T1, biotinylated beta-catenin (Homo sapiens, UniProt P35222); assay: Surface Plasmon Resonance (Biacore); type: binding
T1 sequence (P35222 1-781): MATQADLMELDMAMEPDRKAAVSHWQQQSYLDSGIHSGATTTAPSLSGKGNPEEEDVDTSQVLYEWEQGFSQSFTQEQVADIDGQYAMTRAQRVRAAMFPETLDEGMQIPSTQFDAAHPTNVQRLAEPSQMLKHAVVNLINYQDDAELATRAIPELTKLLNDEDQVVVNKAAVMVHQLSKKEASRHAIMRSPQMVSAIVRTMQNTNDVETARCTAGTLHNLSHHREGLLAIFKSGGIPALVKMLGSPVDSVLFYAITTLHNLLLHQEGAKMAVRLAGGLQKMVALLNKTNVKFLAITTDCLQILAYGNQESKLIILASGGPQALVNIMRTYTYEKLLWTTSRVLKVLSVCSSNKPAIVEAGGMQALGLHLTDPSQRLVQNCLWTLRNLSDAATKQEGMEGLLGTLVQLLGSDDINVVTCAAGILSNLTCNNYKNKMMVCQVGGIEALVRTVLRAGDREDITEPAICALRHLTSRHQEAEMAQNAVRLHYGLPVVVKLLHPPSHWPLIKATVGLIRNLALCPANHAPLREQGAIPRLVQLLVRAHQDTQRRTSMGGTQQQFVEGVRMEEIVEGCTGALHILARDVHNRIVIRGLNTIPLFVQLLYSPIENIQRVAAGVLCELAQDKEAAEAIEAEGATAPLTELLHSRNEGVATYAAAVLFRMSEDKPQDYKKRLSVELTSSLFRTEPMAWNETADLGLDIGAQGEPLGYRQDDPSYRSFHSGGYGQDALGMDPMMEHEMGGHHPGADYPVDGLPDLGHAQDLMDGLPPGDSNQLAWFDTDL
Description: Additionally or alternatively, binding to beta-catenin may be measured by Surface Plasmon Resonance. In an exemplary assay, approximately 6 nmol dried peptide diluted in buffer (50 mM Tris pH 8.0, 300 mM NaCl, 2% glycerol, 0.5 mM TCEP, 0.5 mM EDTA, 0.005% Tween-20, 1 mg/mL CM Dextran, 0.02% w/v sodium azide) was assayed on a Biacore X100 using the Biacore Biotin CAPture Kit (GE Healthcare) and biotinylated beta-catenin. Results were analyzed using the Biacore X100 Evaluation Software. […] FPO217c (Isomer 2) bound to the armadillo domain of β-catenin with a Kd of 2 nM.

[2] = molecular target: T2, full-length beta-catenin (Axin site) (Homo sapiens, UniProt P35222); assay: Competition fluorescence polarization assay (Axin site probe); type: binding
T2 construct: 15 nM full-length beta-catenin, 20 nM FITC labeled peptide in buffer
T2 sequence (P35222 1-781): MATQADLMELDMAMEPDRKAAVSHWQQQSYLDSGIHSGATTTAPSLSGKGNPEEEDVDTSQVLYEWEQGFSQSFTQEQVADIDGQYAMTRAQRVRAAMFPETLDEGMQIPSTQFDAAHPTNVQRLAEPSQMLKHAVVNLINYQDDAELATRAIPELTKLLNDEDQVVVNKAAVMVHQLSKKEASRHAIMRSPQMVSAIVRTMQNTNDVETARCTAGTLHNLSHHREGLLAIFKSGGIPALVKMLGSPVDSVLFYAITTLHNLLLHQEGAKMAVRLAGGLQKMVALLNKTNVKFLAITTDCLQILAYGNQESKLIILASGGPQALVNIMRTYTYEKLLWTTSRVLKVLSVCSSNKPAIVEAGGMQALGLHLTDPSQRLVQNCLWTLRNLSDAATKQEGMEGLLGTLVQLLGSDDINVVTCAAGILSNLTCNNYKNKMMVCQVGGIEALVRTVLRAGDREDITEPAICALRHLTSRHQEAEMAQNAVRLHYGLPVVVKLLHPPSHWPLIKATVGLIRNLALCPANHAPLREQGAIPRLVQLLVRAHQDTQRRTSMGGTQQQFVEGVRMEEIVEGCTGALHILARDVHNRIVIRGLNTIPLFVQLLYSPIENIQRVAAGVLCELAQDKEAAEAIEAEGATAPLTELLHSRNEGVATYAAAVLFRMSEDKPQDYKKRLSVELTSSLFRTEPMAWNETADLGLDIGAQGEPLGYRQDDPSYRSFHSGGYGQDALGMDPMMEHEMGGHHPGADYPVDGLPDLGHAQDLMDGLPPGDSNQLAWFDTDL
Outline: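 Competition FP: 15 nM full-length β-catenin pre-incubated 5 min with 20 nM FITC-labelled stapled Axin-site peptide, then titrated peptide added (3-fold series from 5 μM) for 15 min in the dark. Buffer 50 mM Tris pH 8.0, 250 mM NaCl, 2% glycerol, 0.5 mM EDTA; duplicate reads.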

[3] = competition fluorescence polarization, Table 2, read-out: in vitro FP EC50

| Kd ([1]; Table 2, read-out: Kd by SPR) | EC50 [2, 3] | Kd ([1]; Biacore, biotinylated beta-catenin, read-out: Kd) | EC50 ([2]; competition with FITC labeled Axin-site probe, 15 nM full-length beta-catenin, read-out: FP EC50) | Structure (SMILES) |
| --- | --- | --- | --- | --- |
| 0.034 µM | 0.1 to 0.5 µM |  |  | CC[C@H](C)[C@@H]1NC(=O)[C@@]2(NC(=O)[C@H](CCC(N)=O)NC(=O)[C@@H]3CCCN3C(C)=O)CCN(CC=CCCCC[C@](C)(C(=O)N[C@@H](Cc3c[nH]cn3)C(=O)N[C@H](C(=O)N[C@@H](CCCNC(=N)N)C(=O)N[C@@H](CCCNC(=N)N)C(=O)N[C@H](C(=O)N[C@@H](Cc3c[nH]c4ccccc34)C(=O)N[C@@H](CCCNC(=N)N)C(N)=O)C(C)C)C(C)C)NC(=O)[C@H](CC(=O)O)NC(=O)[C@H](CC(C)C)NC1=O)C2 (single isomer, unassigned) [FP0745a, Ac-P-Q-MC-I-L-D-R6-H-V-R-R-V-W-R-NH2] |
| 0.013 µM | < 0.1 µM |  |  | CC[C@H](C)[C@@H]1NC(=O)[C@](C)(NC(=O)[C@H](CCC(N)=O)NC(=O)[C@@H]2CCCN2C(C)=O)CCC=CCOC(=O)N2CC[C@](C(=O)N[C@@H](Cc3c[nH]cn3)C(=O)N[C@H](C(=O)N[C@@H](CCCNC(=N)N)C(=O)N[C@@H](CCCNC(=N)N)C(=O)N[C@H](C(=O)N[C@@H](Cc3c[nH]c4ccccc34)C(=O)N[C@@H](CCCNC(=N)N)C(N)=O)C(C)C)C(C)C)(C2)NC(=O)[C@H](CC(=O)O)NC(=O)[C@H](CC(C)C)NC1=O (single isomer, unassigned) [FP0765c, Ac-P-Q-R4-I-L-D-MC-H-V-R-R-V-W-R-NH2] |
| 0.007 µM | < 0.1 µM |  |  | CC[C@H](C)[C@@H]1NC(=O)[C@](C)(NC(=O)[C@H](CCC(N)=O)NC(=O)[C@@H]2CCCN2C(C)=O)CCCC=CCOC(=O)N2CC[C@](C(=O)N[C@@H](Cc3c[nH]cn3)C(=O)N[C@H](C(=O)N[C@@H](CCCNC(=N)N)C(=O)N[C@@H](CCCNC(=N)N)C(=O)N[C@H](C(=O)N[C@@H](Cc3c[nH]c4ccccc34)C(=O)N[C@@H](CCCNC(=N)N)C(N)=O)C(C)C)C(C)C)(C2)NC(=O)[C@H](CC(=O)O)NC(=O)[C@H](CC(C)C)NC1=O (single isomer, unassigned) [FP0766c, Ac-P-Q-R5-I-L-D-MC-H-V-R-R-V-W-R-NH2] |
|  |  | ~0.043 µM | 0.2 µM | CC[C@H](C)[C@@H]1NC(=O)[C@@](C)(NC(=O)[C@H](CCC(N)=O)NC(=O)[C@@H]2CCCN2C(C)=O)CCCCCC=CCN2CC(C(=O)N[C@@H](Cc3c[nH]cn3)C(=O)N[C@H](C(=O)N[C@@H](CCCNC(=N)N)C(=O)N[C@@H](CCCNC(=N)N)C(=O)N[C@H](C(=O)N[C@@H](Cc3c[nH]c4ccccc34)C(=O)N[C@@H](CCCNC(=N)N)C(N)=O)C(C)C)C(C)C)(C2)NC(=O)[C@H](CC(=O)O)NC(=O)[C@H](CC(C)C)NC1=O (single isomer, unassigned) [FP-0738a] |
